Results: PubChem BioAssay (NCI)
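All cell lines were grown in 96-well plates and treated with compound for 48 hours. At the TGI there is no net growth.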

Legend:
Assay in all cases: DTP human tumour cell line panel, 48 h
HCT-15 colon = system: HCT-15 colon
SK-OV-3 ovarian = system: SK-OV-3 ovarian
SF-539 CNS = system: SF-539 CNS
CCRF-CEM leukemia = system: CCRF-CEM leukemia
SN12C renal = system: SN12C renal
UO-31 renal = system: UO-31 renal
HCC-2998 colon = system: HCC-2998 colon
K-562 leukemia = system: K-562 leukemia
HS 578T breast = system: HS 578T breast
NCI-H522 lung = system: NCI-H522 lung
HOP-62 NSCLC = system: HOP-62 NSCLC
RXF 393 renal = system: RXF 393 renal

Row | SMILES | TGI (HCT-15 colon) [µM] | TGI (SK-OV-3 ovarian) [µM] | TGI (SF-539 CNS) [µM] | TGI (CCRF-CEM leukemia) [µM] | TGI (SN12C renal) [µM] | TGI (UO-31 renal) [µM] | TGI (HCC-2998 colon) [µM] | TGI (K-562 leukemia) [µM] | TGI (HS 578T breast) [µM] | TGI (NCI-H522 lung) [µM] | TGI (HOP-62 NSCLC) [µM] | TGI (RXF 393 renal) [µM]
1 | COc1ccc(OC)c(CNc2ccc(O)c(C(=O)NCCc3ccc(F)cc3)c2)c1 | 44.9 | 46.3 | 35.7 | > 100 | 71.9 | 24.8 | 8.98 | 19.1 | > 100 | 7.56 | 21.4 | 
2 | Cc1cc(S(=O)(=O)O)ccc1N=Nc1ccc(N=Nc2c(O)ccc3ccccc23)c(C)c1 | > 100 | > 100 |  | 60.8 | > 100 | > 100 |  | > 100 | > 100 | 68.5 | > 100 | > 100
3 | CC(=O)c1ccc2c(c1)oc(=O)n2CCN(C)C | > 100 | > 100 | > 100 | > 100 |  |  |  |  | > 100 |  | > 100 | > 100
4 | Cc1cc(NC2=NCCO2)c2c(c1C)CCCC2 | 49.6 | > 100 | 22.6 | > 100 | 66.3 | 30.7 | 29 |  | > 100 |  | 32 | > 100
5 | c1ccc(C(=NNc2nc3ccccc3[nH]2)c2ccccn2)nc1 | > 100 | 0.828 | 0.546 | 0.257 |  | 1.78 | 28.6 | > 100 | > 100 | 0.089 | 2.62 | 
6 | CC(C)(C)OC(=O)NC(CCCCNC(=O)OCc1ccccc1)C(=O)NC(CCCCNC(=O)OCc1ccccc1)C(=O)ON1C(=O)CCC1=O (centres undefined) | > 100 |  |  | > 100 | > 100 | > 100 | > 100 | > 100 | > 100 |  | > 100 | > 100
7 | CCOC(=O)N(CC)c1c(C(F)(F)F)cc(-c2ccccc2)[nH]c1=O | > 100 | > 100 |  | 63.8 | > 100 | > 100 | > 100 | > 100 |  |  | > 100 | > 100
8 | CC(=O)Oc1ccc(OC(Oc2ccccc2)c2ccccc2)cc1 (centres undefined) | > 100 | > 100 | 49.8 | 72.2 | 29.2 | 88.9 | 39.7 | > 100 |  | 96.4 | > 100 | 57.1
9 | Cc1ccc(O)c(Cc2nc3ccccc3nc2-c2cccc(Br)c2)c1 | 66.9 | > 100 | > 100 | > 100 | > 100 | > 100 |  | > 100 | 66.8 | > 100 | > 100 | > 100
10 | O=C(NN=C1CCCCC1)Nc1ccccc1Cl | > 100 | > 100 | > 100 | > 100 | > 100 | > 100 | > 100 | > 100 | > 100 | > 100 |  | 
11 | CCCCNC(=S)/N=C/c1c(O)c2ccccc2oc1=O | > 100 | > 100 | > 100 |  | > 100 | > 100 | > 100 |  |  |  | > 100 | 
12 | FC1CCN(C2(c3cccs3)CCCCC2)CC1 | > 100 | > 100 |  |  | > 100 | > 100 | > 100 | > 100 |  | > 100 | > 100 | > 100
13 | C=CCN1CC2CN=NC2(C#N)C1 (centres undefined) | > 100 |  |  | > 100 | > 100 | > 100 | > 100 | > 100 |  | > 100 | > 100 | > 100
14 | C[C@]12CCC(=O)C=C1CC[C@@H]1[C@@H]2C(=O)C[C@@]2(C)[C@H]1CC[C@]2(O)C(=O)CO | > 100 | > 100 | > 100 | > 100 | > 100 | > 100 | > 100 | > 100 |  | > 100 |  | > 100
15 | O=C(c1ccc(Cl)cc1)N(C(=S)N1CCN(c2ccccn2)CC1)c1ccccc1 | > 100 | > 100 | > 100 | > 100 | > 100 | > 100 |  | > 100 |  | > 100 | > 100 | > 100
16 | COC(=O)C[C@H](COCc1ccccc1)NC(=O)C[C@H](COCc1ccccc1)NC(=O)C[C@H](COCc1ccccc1)NC(=O)OC(C)(C)C | > 100 | > 100 | > 100 | > 100 | > 100 | > 100 |  | > 100 | > 100 | > 100 | 48 | 72
17 | CC1(C)Oc2ccc(Cl)cc2C12CC2 | 33 | 44.7 | > 100 | > 100 | 33.6 | 30.8 | 30.6 | 39.2 | 44.8 |  | 37.7 | 30.2
18 | Oc1[nH]c2ccccc2c1N=NC(=S)N1CCCCCC1 | 10 | 4.79 | 1.59 |  | 10.6 | 3.08 | 7.1 |  |  | 12.6 | 4.09 | 2.43
19 | CCC(=N\NC(N)=S)/C(C)=N/O | > 100 | > 100 | > 100 |  | > 100 | > 100 | > 100 | > 100 | > 100 |  | > 100 | > 100
20 | COc1ccc(N2C(=O)C3c4[nH]c5ccccc5c4C4CCC(C(C)C)CC4C3C2=O)cc1 (centres undefined) | > 100 | > 100 |  | > 100 | > 100 | > 100 | > 100 | > 100 | > 100 | > 100 | > 100 | 
21 | c1ccc(C(CCN2CCCC2)c2ccccn2)cc1 (centres undefined) | > 100 | > 100 |  |  | > 100 | > 100 | > 100 | > 100 | > 100 | > 100 | > 100 | > 100
